This is an account of results in publication PMC4774911, “Biochemical Screening of Five Protein Kinases from Plasmodium falciparum against 14,000 Cell-Active Compounds” (PLoS ONE, 2016).

Some targets named below: TNK2 (Homo sapiens, UniProt Q07912); RPS6KA1 (Homo sapiens, UniProt Q15418); CSNK2A2 (Homo sapiens, UniProt P19784).
Holding throughout (experiment): biochemical
Holding throughout (parameters): endogenous in cells; host or cells: K562 cell extract; species or system K562 (extract); replicate k of n = 2 (each experiment ID is one independent experiment; two experiment IDs per compound)
Holding throughout (details): read-out: KDapp

The next assay addresses T1, BMPR2 (Homo sapiens, UniProt Q13873).
T1 sequence (Q13873 1-1038): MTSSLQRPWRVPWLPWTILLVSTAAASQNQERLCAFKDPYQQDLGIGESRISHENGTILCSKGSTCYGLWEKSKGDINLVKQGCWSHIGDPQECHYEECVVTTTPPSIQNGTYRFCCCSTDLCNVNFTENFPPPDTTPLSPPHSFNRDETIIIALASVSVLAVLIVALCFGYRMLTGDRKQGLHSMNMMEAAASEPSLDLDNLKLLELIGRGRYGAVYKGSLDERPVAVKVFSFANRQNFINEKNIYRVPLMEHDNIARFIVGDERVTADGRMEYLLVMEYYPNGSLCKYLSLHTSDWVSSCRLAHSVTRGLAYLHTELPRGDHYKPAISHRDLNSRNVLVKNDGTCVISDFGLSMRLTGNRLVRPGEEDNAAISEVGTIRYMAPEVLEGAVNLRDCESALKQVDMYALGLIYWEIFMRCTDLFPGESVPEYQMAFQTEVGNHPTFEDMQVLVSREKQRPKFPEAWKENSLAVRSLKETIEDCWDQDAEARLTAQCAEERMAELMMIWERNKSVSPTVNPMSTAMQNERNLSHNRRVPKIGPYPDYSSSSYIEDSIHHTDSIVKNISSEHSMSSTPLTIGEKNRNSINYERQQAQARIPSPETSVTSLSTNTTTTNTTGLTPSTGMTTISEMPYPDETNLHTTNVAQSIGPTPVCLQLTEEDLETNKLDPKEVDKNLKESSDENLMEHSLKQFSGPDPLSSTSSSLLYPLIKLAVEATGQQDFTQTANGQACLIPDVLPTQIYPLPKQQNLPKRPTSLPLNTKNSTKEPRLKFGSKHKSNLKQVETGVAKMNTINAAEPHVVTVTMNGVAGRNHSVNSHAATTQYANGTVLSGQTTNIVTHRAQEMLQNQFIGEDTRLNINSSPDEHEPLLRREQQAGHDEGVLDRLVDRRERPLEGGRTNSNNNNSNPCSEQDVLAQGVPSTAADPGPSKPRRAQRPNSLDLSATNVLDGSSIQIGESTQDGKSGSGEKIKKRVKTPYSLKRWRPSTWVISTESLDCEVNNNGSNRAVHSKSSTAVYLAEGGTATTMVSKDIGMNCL

In another assay the target is T2, AURKA (Homo sapiens, UniProt O14965).
T2 sequence (O14965 1-403): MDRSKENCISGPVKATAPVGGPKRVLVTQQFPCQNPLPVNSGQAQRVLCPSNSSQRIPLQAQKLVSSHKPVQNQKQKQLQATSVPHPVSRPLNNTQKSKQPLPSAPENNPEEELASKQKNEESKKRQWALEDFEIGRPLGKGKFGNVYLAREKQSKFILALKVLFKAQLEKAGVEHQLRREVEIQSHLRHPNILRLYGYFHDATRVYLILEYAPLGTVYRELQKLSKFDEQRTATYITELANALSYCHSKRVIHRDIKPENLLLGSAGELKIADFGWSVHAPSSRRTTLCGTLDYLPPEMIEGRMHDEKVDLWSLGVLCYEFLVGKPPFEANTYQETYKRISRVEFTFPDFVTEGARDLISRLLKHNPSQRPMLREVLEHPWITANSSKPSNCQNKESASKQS

A further assay addresses T3, IRAK4 (Homo sapiens, UniProt Q9NWZ3).
T3 sequence (Q9NWZ3 1-460): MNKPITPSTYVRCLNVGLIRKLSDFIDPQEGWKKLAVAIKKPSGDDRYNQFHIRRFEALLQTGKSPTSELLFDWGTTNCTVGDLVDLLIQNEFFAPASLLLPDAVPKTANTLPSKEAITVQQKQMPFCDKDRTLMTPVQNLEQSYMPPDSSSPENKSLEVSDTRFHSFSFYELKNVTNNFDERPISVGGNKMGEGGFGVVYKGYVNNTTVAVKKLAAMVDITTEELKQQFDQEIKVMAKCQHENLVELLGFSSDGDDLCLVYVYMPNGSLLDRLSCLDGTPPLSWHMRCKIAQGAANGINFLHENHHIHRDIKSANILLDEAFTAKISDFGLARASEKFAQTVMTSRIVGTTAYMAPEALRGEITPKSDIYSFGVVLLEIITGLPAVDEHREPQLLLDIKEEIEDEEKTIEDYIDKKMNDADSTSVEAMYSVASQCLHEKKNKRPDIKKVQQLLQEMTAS

Values joined by “and” are separate entries in the source; they are usually repeats but may differ in a detail not shown here. Equal entries are not always repeated.

Sequence of CSNK2A2 (P19784 whole entry): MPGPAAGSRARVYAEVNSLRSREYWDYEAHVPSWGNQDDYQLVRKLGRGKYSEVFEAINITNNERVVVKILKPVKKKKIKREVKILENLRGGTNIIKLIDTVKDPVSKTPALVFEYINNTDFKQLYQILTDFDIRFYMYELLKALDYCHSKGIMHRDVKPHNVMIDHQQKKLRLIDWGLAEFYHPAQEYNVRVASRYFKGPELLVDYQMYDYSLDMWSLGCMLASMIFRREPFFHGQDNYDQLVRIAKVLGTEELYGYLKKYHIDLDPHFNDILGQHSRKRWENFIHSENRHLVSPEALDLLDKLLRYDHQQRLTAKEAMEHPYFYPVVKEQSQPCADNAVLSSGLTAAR
Sequence of RPS6KA1 (Q15418 whole entry): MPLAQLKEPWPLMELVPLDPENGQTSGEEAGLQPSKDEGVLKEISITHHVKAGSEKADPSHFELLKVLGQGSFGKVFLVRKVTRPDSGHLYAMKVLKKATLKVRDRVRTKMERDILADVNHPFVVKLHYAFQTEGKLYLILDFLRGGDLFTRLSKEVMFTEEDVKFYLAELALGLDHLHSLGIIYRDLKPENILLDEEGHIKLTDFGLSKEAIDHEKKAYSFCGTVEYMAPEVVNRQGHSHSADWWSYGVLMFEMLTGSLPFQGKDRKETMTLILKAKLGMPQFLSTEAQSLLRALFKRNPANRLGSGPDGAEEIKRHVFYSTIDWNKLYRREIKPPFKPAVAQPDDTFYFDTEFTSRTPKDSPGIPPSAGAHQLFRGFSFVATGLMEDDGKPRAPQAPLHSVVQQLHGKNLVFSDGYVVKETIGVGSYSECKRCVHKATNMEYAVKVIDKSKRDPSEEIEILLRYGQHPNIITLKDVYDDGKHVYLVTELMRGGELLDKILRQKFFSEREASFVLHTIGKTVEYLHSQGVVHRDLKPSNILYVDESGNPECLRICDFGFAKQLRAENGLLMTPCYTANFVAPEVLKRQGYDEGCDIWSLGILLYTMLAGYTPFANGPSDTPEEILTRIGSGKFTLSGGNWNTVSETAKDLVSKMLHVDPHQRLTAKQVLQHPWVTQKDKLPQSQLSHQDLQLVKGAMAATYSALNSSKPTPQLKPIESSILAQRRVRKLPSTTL
Sequence of TNK2 (Q07912 whole entry): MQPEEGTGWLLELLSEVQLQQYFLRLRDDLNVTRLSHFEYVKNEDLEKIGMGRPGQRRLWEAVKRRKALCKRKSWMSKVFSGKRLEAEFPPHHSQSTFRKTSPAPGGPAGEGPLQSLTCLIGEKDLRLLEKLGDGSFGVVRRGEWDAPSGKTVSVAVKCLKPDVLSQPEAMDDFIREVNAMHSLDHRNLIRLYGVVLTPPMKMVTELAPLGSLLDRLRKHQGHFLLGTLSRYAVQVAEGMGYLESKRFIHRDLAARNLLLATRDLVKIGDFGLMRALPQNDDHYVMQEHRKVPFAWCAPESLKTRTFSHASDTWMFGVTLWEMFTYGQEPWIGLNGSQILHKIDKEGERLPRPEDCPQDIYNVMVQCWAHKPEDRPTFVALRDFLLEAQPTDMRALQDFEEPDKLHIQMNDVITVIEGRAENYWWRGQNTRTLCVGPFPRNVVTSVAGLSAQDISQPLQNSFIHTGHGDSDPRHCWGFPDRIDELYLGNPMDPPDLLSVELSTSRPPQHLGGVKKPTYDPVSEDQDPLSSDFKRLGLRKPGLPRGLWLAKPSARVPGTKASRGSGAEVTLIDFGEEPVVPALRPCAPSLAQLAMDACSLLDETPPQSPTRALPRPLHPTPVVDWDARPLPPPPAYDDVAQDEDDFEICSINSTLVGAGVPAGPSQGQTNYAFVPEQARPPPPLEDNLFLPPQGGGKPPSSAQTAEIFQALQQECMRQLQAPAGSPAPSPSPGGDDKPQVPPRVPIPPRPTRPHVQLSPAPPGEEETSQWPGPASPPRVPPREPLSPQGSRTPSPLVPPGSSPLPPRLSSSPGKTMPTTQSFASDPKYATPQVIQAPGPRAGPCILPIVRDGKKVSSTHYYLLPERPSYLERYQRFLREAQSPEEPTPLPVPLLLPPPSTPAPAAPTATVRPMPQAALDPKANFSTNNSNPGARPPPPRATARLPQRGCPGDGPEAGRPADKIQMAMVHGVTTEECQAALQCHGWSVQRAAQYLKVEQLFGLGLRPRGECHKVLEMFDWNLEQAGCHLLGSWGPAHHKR

As for `CN1CCN(c2ccc(Nc3ncc(C#N)c(Nc4ccccc4C(N)=O)n3)cc2)CC1.Cl` [TCMDC-134116], the Kd was 3470 nM and 4750 nM on BMPR2; 12.3 nM at AURKA; 73.5 nM at TNK2; 96 nM at RPS6KA1; 96.4 nM at IRAK4.

For `CN(C)CC(O)COc1ccc(Nc2ncc([N+](=O)[O-])c(Nc3ccccc3O)n2)cc1.O=C(O)C(F)(F)F` (stereo not drawn) [TCMDC-141399], the Kd at CSNK2A2 is 33.3 nM and 26.8 nM.
